Series [1] relates to HCT-116 human colon cancer cells. The note with it: for cell death of HCT-116 cells, chip seeded with HCT-116 cells only: no cells in the liver compartment, 24 hours. The protocol: FIG. 16 Tegafur dose response. […] The chips were treated with indicated concentrations of tegafur for 24 hours. The first graph (FIG. 16A) is a plot of percentage dead cells vs. tegafur or 5-FU concentration after 24 hours of re-circulation on the chip. The second graph (FIG. 16B) is a similar dose response using a traditional in vitro cell culture assay with HCT 116 cells using a 48 hour exposure. HCT-116 cells were seeded on poly-lysine treated glass coverslips and exposed to either tegafur or 5-FU at the indicated concentrations. After a 48 hr incubation, coverslips were treated as described above and the percentage of cell death was determined.
(§1) LIVE/DEAD stain is a two-component stain consisting of calcein AM and ethidium homodimer. Living cells actively hydrolyze the acetoxymethyl ester (AM) moiety of calcein AM to produce bright green fluorescence of calcein. In contrast, cells that have compromised membrane integrity allow the normally membrane impermeant ethidium homodimer to stain the nucleus of dead or dying cells fluorescent red. The cell permeant nuclear stain, Hoechst 33342 acts as a general stain for all cells. Together with the appropriate filter sets, living cells fluoresce green, dying or dead cells red, and all cells are quantified by a blue nuclear fluorescence. For experiments described herein, trypan blue was used at 0.2% (w/v), calcein AM at 1:20,000, propidium iodide at 1:5,000, and Hoechst 33342 at 10 μg/ml. Cells were visualized with a M2Bio stereofluorescence microscope (Zeiss). All experiments were repeated at least three times and measurements done in triplicate.
[…] Tegafur was added to the re-circulating medium at various concentrations for 24 hours and the cells labeled with Hoechst 33342, a membrane permeable DNA dye, and ethidium homodimer, a membrane impermeable DNA dye (see Methods Section).

The next series relates to HCT-116 cells. Description: Traditional in vitro cell culture assay, HCT-116 on poly-lysine treated glass coverslips. The class given is cell-based, human. The note with it: for cytotoxicity to HCT-116 cells, traditional cell culture assay: 48 hr incubation. The protocol:
FIG. 16 Tegafur dose response. Chips were seeded with HepG2-C3A cells in the liver compartment and HCT-116 colon cancer cells in the target tissues compartment. The chips were treated with indicated concentrations of tegafur for 24 hours. The first graph (FIG. 16A) is a plot of percentage dead cells vs. tegafur or 5-FU concentration after 24 hours of re-circulation on the chip. The second graph (FIG. 16B) is a similar dose response using a traditional in vitro cell culture assay with HCT 116 cells using a 48 hour exposure. HCT-116 cells were seeded on poly-lysine treated glass coverslips and exposed to either tegafur or 5-FU at the indicated concentrations. After a 48 hr incubation, coverslips were treated as described above and the percentage of cell death was determined.
To measure the cytotoxic effects of tegafur against colon cancer cells, the microscale chip was prepared with HepG2-C3A cells in the liver compartment and HCT-116 human colon cancer cells in the target tissue compartment. Tegafur was added to the re-circulating medium at various concentrations for 24 hours and the cells labeled with Hoechst 33342, a membrane permeable DNA dye, and ethidium homodimer, a membrane impermeable DNA dye (see Methods Section).

The test system of series [2] is HepG2/C3A cells. Kind of series: APOPTAG (TUNEL) apoptosis assay on glass coverslips. The note with it: 1 μM, 24-hour incubation, compared to untreated controls. It is filed as cell-based, human. An excerpt:
(§2) In contrast to annexin V labeling, the APOPTAG™ kit (Intergen Co., MA) uses terminal deoxynucleotidyl transferase to label free 3′-OH DNA termini exposed during apoptotic DNA degradation and visualization using immunofluorescence (Li, X., Traganos, F., Melamed, M. R., and Darzynkiewicz, Z. (1995). Single-step procedure for labeling DNA strand breaks with flourescein-or BODIPY-conjugated deoxynucleotides: detection of apoptosis and bromodeoxyuridine incorporation. Cytometry 20, 172-180). Although this method is highly specific for apoptosis, the procedure cannot be done on-chip due to the fixation and incubation steps. Briefly, microscale chips were run under specified experimental conditions, the cell chips were removed from their housing units, fixed in 1% paraformaldehyde and processed with the APOPTAG™ kit using the manufacturer's protocol.
(§3) Two different assays to detect apoptosis were investigated. The first assay was the immunofluorescence-based terminal deoxynucleotidyl transferase BrdU nick end labeling (TUNEL) technique available in kit form as APOPTAG™ (Intergen Co., MA) (see Methods section). The assay was first optimized using cells grown on glass coverslips. Briefly, HepG2/C3A cells were seeded onto poly-D-lysine treated glass coverslips and treated with and without staurosporine. Coverslips were processed as described (see Methods section). […]

Series [3] has as its system HCT116 cells. Description: LIVE/DEAD cytotoxicity assay on microscale chip system. The class given is cell-based, human. The note with it: 1 μM, 24 hour treatment, compared to untreated control cell chips.
From the text: as §1
Two different assays to detect apoptosis were investigated. The first assay was the immunofluorescence-based terminal deoxynucleotidyl transferase BrdU nick end labeling (TUNEL) technique available in kit form as APOPTAG™ (Intergen Co., MA) (see Methods section).

Series [4] deals with HCT116 cells. Description: APOPTAG (TUNEL) apoptosis assay on microscale chip system. It is filed as cell-based, human. The note with it: 1 μM, 24 hour exposure, compared to untreated controls.
From the text: as §2, §3

Series [5] has as its system HepG2/C3A cells in the liver compartment and HCT116 cells in the target tissues compartment. Kind of series: Annexin V-FITC apoptosis assay on microscale chip system. It is filed as cell-based, human. To be noted: 1 μM, 6-hour treatment, compared to untreated control cell chips.
Method: With the microscale chip, annexin V-FITC labeling was visualized directly on-chin, by first flushing the system with PBS, then recirculating annexin V-FITC (10 μg/ml in annexin V binding buffer, Clontech) for 30 min. Cells were then visualized directly using a FITC filter set.
The annexin V-FITC was used to detect apoptosis in the microscale chip system as described in the Methods section. Briefly, the microscale chip cell chips were seeded with HepG2/C3A cells in the liver compartment and HCT116 cells in the target tissues compartment. Cell chips were loaded onto the microscale chip system and treated with and without 1 μM staurosporine as described above. After a 6-hour incubation, the re-circulating medium was switched to PBS containing Annexin V-FITC and Hoechst 33342 and allowed to flow through the system for 30 minutes. Cell chips were removed from the acrylic housing and visualized under a fluorescent microscope. Cells were visualized under a fluorescent microscope and fluorescent images of identical fields were obtained using the appropriate filter sets.
For series [6], the system named is HepG2/C3A cells. Description: LIVE/DEAD assay on poly-D-lysine treated glass coverslips. It is filed as cell-based, human. The note with it: 1 μM, 24 hours.
From the text: as §1
The LIVE/DEAD assay was optimized (see Methods section) using cells grown on glass coverslips. Briefly, HepG2/C3A cells were seeded onto poly-D-lysine treated glass coverslips and treated with and without 1 μM staurosporine for 24 hours. […]

Series [7] deals with HT29 human colon cancer cells. Description: Microscale chip, HepG2-C3A liver compartment and HT29 target tissue compartment, live/dead fluorescence. It is filed as cell-based. To be noted: 24 hours; for efficacy against HT-29 colon cancer cells (mutant p53) in the chip: chip with HepG2-C3A liver compartment.
From the text: as §1

The structures appear in SMILES notation. Entries after “also recorded” stand apart in the source; their conditions may differ.

For `O=c1[nH]cc(F)c(=O)[nH]1` [5-FU, 5-fluorouracil], the “cell death of HCT-116 cells, chip seeded with HCT-116 cells only” value in series [1] is given as “caused substantial cell death”. In the series with HCT-116 cells, the “exposure at which cytotoxicity was observed, traditional cell culture assay” value stood at 48 h and the “cytotoxicity to HCT-116 cells, traditional cell culture assay” value is “triggered cell death”.

Consider `CN[C@@H]1C[C@H]2O[C@@](C)([C@@H]1OC)n1c3ccccc3c3c4c(c5c6ccccc6n2c5c31)C(=O)NC4` [Staurosporine], for which, in the series on HepG2/C3A cells [2], the “apoptosis of HepG2/C3A cells (APOPTAG)” value is on record as “significant apoptosis”. Further, the “cell death of HCT116 cells (LIVE/DEAD) on chip” value in the series with HCT116 cells [3] is listed as “Significant cell death; also recorded: significant apoptosis (or cytotoxicity)”. For the same molecule, the “apoptosis of HCT116 cells (APOPTAG) on chip” value with HCT116 cells [4] is recorded as “significant apoptosis (or cytotoxicity)”. In series [5], the “apoptosis (annexin V-FITC) on chip” value is “significant apoptosis”. The “cell death of HepG2/C3A cells (LIVE/DEAD)” value in the series on HepG2/C3A cells [6] is “clearly cause cell death”.

Turning to `CC1=C(CC(=O)O)c2cc(F)ccc2/C1=C\c1ccc([S+](C)[O-])cc1` (stereo not drawn) [Sulindac, sulindac sulfoxide], the “cell death of HT29 cells in the chip” value in series [7] (One hundred micromoles in re-circulating medium, absence of the HepG2-C3A liver cells) was “minimal levels of cell death”. Further, the “efficacy against HT-29 colon cancer cells (mutant p53) in the chip” value in series [7] was “effective”.

Turning to `O=c1[nH]c(=O)n(C2CCCO2)cc1F` (stereo not drawn) [Tegafur, 5-fluoro-1-(2-tetrahydrofuryl)-2,4(1H,3H)-pyrimidinedione], in series [1], the “cytotoxicity to HCT-116 cells in the microscale chip” value is “cytotoxic to HCT-116 cells in a dose-dependent fashion”; the “exposure at which cytotoxicity was observed, microscale chip” value worked out at 24 h; the “cell death of HCT-116 cells, chip seeded with HCT-116 cells only” value was “did not cause significant cell death”. Besides, the “efficacy against HT-29 colon cancer cells (mutant p53) in the chip” value in series [7] is listed as “ineffective”. In the series with HCT-116 cells, the “cytotoxicity to HCT-116 cells, traditional cell culture assay” value is “ineffective”.

For the origin of these results see patent publication US20080064088A1, “DEVICES AND METHODS FOR PHARMACOKINETIC-BASED CELL CULTURE SYSTEM” (priority 2006, published 2008).
